# Source: patent US9573911B2, “Diphosphate mimetics and uses thereof” (President and Fellows of Harvard College, priority 2011, dated 2017)
# Key:
# Assay in all cases: Kinase profiling, Invitrogen Z'-LYTE
# Assay type in all cases: biochemical
# Settings in all cases: Table 2
# [1] = target: T1, MARK2 (Homo sapiens, UniProt Q7KZI7)
# T1 construct: purchased Invitrogen
# Description: (§1) Kinase profiling was conducted using Invitrogen Z'-LYTE screening protocol and assay conditions found at www.invitrogen.com. Compound (2) inhibited PLK1 completely at 5 μM.
# [2] = target: T2, SGKL (SGK3) (Homo sapiens, UniProt Q96BR1)
# T2 construct: purchased Invitrogen
# T2 sequence (Q96BR1 1-496): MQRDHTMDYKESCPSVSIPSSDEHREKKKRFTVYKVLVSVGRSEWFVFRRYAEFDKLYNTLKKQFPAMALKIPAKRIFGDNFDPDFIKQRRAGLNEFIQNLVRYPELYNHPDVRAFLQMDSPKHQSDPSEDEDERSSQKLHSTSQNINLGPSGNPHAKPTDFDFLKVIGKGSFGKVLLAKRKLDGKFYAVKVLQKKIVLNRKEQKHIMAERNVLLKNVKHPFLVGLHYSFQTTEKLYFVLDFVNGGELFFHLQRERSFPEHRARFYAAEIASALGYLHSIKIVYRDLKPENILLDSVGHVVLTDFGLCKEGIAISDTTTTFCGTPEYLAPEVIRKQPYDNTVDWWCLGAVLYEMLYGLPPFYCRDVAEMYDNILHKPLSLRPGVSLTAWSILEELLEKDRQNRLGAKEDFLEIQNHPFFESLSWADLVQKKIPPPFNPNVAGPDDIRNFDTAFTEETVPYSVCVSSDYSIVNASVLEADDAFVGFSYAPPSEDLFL
# Description: as §1
# [3] = target: T3, EEF2K (Homo sapiens, UniProt O00418)
# T3 construct: purchased Invitrogen
# Description: as §1
# [4] = target: T4, PRKD1 (PKC mu) (Homo sapiens, UniProt Q15139)
# T4 construct: purchased Invitrogen
# T4 sequence (Q15139 1-912): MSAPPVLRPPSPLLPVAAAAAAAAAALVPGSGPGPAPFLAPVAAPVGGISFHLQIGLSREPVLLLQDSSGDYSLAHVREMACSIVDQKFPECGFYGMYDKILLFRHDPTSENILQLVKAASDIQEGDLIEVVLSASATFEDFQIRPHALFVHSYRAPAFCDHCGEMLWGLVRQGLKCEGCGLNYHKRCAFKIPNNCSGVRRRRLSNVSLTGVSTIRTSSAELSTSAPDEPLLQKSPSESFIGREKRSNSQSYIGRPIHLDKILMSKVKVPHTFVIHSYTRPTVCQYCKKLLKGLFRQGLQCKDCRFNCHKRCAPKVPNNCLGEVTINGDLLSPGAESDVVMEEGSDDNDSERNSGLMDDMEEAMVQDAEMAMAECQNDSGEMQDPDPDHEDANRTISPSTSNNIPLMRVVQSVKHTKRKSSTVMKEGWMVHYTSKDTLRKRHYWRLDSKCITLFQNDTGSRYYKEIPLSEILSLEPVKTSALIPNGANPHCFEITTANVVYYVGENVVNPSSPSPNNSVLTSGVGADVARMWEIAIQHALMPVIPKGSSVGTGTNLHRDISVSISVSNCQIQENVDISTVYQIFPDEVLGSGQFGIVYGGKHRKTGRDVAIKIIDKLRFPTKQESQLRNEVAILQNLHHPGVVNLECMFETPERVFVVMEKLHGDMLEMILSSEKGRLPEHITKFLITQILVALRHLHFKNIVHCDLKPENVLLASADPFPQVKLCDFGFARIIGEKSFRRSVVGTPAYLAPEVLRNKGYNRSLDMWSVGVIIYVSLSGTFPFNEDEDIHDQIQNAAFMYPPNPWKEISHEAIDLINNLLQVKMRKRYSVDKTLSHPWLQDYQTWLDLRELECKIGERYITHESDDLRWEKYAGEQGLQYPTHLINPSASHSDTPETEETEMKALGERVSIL
# Description: as §1
# [5] = target: T5, CDK5/p25 (Homo sapiens, UniProt Q00535)
# T5 construct: purchased Invitrogen
# T5 sequence (Q00535 whole entry): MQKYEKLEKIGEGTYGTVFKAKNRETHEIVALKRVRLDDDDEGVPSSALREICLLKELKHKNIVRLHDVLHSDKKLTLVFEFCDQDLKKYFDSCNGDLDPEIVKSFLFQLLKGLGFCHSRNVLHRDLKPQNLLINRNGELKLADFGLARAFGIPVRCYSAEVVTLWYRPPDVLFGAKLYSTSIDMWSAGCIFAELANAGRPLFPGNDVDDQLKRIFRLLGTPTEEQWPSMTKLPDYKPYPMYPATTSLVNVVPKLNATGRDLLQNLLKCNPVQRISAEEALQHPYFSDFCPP
# T5 sequence (Q15078 99-307 partner limits assumed): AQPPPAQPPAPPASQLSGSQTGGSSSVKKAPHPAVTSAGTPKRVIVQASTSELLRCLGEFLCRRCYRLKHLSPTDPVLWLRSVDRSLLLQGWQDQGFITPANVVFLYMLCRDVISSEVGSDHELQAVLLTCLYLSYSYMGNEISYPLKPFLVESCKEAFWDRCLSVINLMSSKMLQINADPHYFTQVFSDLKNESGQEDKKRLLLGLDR
# Description: as §1
# [6] = target: T6, RPS6KA2 (RSK3) (Homo sapiens, UniProt Q15349)
# T6 construct: purchased Invitrogen
# T6 sequence (Q15349 whole entry): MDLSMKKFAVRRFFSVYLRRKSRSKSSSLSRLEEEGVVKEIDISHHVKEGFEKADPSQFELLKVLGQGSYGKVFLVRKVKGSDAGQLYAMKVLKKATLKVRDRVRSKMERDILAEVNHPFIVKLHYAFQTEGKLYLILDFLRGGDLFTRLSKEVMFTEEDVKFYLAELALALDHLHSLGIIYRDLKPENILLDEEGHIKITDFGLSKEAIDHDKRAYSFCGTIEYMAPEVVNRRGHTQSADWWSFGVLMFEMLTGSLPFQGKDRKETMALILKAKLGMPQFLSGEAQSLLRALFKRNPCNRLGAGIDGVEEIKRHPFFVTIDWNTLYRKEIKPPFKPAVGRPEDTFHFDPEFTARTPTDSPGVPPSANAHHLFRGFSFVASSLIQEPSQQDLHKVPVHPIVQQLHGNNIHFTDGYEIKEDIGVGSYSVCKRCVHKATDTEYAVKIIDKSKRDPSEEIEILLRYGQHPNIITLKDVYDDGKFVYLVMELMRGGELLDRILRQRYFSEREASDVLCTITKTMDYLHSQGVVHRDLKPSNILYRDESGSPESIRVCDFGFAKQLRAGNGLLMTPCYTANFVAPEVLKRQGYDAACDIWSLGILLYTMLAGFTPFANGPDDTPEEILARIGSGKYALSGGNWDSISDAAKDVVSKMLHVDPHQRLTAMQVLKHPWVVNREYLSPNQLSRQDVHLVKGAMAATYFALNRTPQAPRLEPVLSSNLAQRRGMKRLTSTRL
# Description: as §1
# [7] = target: T7, MAPKAPK5 (PRAK) (Homo sapiens, UniProt Q8IW41)
# T7 construct: purchased Invitrogen
# T7 sequence (Q8IW41 1-473): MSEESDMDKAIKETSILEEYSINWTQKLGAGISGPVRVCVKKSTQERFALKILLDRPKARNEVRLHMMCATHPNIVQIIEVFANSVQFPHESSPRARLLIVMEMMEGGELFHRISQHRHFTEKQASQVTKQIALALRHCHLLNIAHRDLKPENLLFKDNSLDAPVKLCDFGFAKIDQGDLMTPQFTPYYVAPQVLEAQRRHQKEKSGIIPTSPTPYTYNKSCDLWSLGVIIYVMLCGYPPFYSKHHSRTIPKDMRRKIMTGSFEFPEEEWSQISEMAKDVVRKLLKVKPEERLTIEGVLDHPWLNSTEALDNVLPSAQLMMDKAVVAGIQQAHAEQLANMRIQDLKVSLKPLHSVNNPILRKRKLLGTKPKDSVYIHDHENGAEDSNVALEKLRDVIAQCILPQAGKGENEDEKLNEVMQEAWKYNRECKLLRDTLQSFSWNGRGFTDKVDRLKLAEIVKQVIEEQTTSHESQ
# Description: as §1
# [8] = target: T8, ABL1 (Homo sapiens, UniProt P00519)
# T8 construct: purchased Invitrogen
# T8 sequence (P00519 whole entry): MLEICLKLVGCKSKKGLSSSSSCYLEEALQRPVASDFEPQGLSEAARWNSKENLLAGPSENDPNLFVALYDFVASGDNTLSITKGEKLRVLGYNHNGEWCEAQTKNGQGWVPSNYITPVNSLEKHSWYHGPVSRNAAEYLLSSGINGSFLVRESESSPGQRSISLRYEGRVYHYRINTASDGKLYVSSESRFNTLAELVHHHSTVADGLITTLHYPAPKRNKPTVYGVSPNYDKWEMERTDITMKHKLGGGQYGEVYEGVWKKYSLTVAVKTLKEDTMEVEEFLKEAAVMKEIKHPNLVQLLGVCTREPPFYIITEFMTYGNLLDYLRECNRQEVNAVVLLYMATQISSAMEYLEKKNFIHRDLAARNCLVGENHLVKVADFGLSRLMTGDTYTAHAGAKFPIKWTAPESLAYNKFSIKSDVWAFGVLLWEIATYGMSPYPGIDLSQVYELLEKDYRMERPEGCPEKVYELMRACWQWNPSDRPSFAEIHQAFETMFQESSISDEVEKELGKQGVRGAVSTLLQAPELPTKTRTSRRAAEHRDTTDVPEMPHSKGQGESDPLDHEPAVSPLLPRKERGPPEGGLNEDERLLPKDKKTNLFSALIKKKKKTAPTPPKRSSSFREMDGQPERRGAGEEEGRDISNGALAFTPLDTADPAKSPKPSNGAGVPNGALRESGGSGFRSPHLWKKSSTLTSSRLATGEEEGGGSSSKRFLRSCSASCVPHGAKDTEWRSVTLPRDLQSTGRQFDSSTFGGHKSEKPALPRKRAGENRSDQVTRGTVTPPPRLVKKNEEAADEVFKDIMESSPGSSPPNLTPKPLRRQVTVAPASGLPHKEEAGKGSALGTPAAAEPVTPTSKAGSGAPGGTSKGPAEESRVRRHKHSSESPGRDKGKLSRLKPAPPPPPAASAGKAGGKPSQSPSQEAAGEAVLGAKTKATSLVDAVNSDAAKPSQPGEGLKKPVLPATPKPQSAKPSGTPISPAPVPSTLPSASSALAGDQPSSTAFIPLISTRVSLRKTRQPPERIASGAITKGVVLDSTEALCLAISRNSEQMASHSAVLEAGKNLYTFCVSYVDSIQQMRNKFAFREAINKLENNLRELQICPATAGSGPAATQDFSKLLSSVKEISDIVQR
# Description: as §1
# [9] = target: T9, CSK (Homo sapiens, UniProt P41240)
# T9 construct: purchased Invitrogen
# T9 sequence (P41240 whole entry): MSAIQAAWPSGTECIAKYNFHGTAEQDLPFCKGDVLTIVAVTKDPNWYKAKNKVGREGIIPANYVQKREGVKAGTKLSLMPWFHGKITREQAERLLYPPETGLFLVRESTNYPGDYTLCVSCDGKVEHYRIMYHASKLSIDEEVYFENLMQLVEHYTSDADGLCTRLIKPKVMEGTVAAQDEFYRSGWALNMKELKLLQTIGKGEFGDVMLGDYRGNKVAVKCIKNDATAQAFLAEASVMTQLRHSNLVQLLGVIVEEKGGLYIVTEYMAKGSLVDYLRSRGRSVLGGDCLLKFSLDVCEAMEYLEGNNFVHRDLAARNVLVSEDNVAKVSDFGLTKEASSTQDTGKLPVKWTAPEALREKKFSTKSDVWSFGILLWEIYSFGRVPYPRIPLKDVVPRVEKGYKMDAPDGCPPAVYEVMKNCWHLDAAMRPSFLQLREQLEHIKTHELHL
# Description: as §1
# T1 sequence (Q7KZI7 whole entry): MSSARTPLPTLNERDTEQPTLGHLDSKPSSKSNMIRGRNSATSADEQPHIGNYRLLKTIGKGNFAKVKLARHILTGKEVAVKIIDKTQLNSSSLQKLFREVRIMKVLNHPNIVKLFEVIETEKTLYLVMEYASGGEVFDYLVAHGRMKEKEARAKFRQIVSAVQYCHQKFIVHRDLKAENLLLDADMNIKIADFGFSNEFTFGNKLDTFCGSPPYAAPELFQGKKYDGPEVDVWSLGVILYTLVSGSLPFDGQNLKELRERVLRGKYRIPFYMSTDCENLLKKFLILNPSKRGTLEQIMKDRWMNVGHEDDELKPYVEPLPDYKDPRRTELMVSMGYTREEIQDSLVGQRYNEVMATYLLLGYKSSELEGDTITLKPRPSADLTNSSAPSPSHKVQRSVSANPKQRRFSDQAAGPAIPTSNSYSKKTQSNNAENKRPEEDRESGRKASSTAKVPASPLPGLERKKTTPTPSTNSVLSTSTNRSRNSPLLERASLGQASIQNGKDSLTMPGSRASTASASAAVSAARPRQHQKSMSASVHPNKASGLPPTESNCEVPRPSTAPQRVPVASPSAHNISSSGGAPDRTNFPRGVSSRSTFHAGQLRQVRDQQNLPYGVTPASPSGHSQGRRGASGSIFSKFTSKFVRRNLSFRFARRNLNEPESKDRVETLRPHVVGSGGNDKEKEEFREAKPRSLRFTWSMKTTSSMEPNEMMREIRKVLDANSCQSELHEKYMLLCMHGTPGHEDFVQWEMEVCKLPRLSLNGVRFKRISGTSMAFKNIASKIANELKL
compound,measurement,setting,value
COc1ccc(OC(=O)n2c(=O)oc3cc(C(C)=O)ccc32)cc1 [Compound 2],% Inhibition Point 1,[1],−172%
same,% Inhibition Point 2,[1],−157%
same,% Inhibition mean,[1],−164%
same,% Inhibition Point 1,[2],−140%
same,% Inhibition Point 2,[2],−150%
same,% Inhibition mean,[2],−145%
same,% Inhibition Point 1,[3],−64%
same,% Inhibition Point 2,[3],−61%
same,% Inhibition mean,[3],−63%
same,% Inhibition Point 1,[4],−137%
same,% Inhibition Point 2,[4],−151%
same,% Inhibition mean,[4],−144%
same,% Inhibition Point 1,[5],−322%
same,% Inhibition Point 2,[5],−286%
same,% Inhibition mean,[5],−304%
same,% Inhibition Point 1,[6],−266%
same,% Inhibition Point 2,[6],−267%
same,% Inhibition mean,[6],−267%
same,% Inhibition Point 1,[7],−146%
same,% Inhibition Point 2,[7],−147%
same,% Inhibition mean,[7],−146%
same,% Inhibition Point 1,[8],−147%
same,% Inhibition Point 2,[8],−234%
same,% Inhibition mean,[8],−190%
same,% Inhibition Point 1,[9],−42%
same,% Inhibition Point 2,[9],−60%
same,% Inhibition mean,[9],−51%
